For orientation: inhibition means the relative decrease from the control value, in per cent.

Holding throughout (assay type): functional
The target in experiment [1] is Leukotriene B4 receptor 1 (Homo sapiens) (UniProt Q15722). The experiment is described as follows: Antagonistic activity against Leukotriene B4 receptor by using [3H]LTB4 as a radioligand at a concentration of 10e-6 M.
For experiment [2] the target is unchanged. The experiment is described as follows: Antagonistic activity against Leukotriene B4 receptor by using [3H]LTB4 as a radioligand at a concentration of 10e-7 M.
Experiment [3] shares this target. The experiment is described as follows: Antagonistic activity against Leukotriene B4 receptor by using [3H]LTB4 as a radioligand at a concentration of 10e-5 M.

Chain of Leukotriene B4 receptor 1 (Homo sapiens) (Q15722 whole entry): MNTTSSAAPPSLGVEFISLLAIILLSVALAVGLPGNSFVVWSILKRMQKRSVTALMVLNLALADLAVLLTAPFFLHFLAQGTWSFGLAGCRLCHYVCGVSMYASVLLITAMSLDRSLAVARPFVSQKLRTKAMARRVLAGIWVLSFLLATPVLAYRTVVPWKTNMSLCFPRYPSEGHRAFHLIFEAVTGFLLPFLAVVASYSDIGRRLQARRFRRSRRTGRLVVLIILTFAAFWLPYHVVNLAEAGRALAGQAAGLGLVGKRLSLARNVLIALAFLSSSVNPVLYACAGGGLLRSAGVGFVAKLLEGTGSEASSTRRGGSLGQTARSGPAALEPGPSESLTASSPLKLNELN

As to `O=C(O)CCc1cc([S+]([O-])c2cccc(C(=O)O)c2)ccc1OCCCCCCc1ccccc1` (stereo unspecified), the inhibition in experiment [1] was determined as 71%; in experiment [2] it was 37%; in experiment [3], 79%.
As to `C=C(c1cccc(C(=O)O)c1)c1ccc(OCCCCCCCCCC)c(CCC(=O)O)c1`, the figures for the inhibition in experiment [1] and in experiment [3] were 39% and 71%, respectively.
For `CCCCCCCCCCOc1ccc(C(=O)c2cccc(C(=O)NC)c2)cc1CCC(=O)NC` the same measures were 0% and 0%.
For `CCCCCCCCCCOc1ccc(C(=O)c2cccc(-c3nn[nH]n3)c2)cc1CCC(=O)OCC` the same measures were 1% and 0%.
Take `CCCCCCCCCCOc1ccc(C(OCC)c2cccc(C(=O)O)c2)cc1CCC(=O)O` (stereo unspecified): the inhibition was found to be 26% in experiment [1] and 78% in experiment [3].
`O=C(O)CCc1cccc(NC(=O)c2cccc(C(=O)O)c2)c1OCCCCCCc1ccccc1`: the inhibition in experiment [1] came out at 0%; in experiment [3], 24%.
With `CCCCCCCCCCOc1ccc(C(O)c2cccc(C(=O)O)c2)cc1` (stereo unspecified), the inhibition in experiment [1] is 3%; in experiment [3], 0%.
`CCCCCCCCCCOc1ccc(C(=O)c2ccc(C(=O)O)cc2)cc1CC(=O)O`: the inhibition was 35% in experiment [1] and 76% in experiment [3].
`CCCCCCCCCCOc1ccc(C(=O)c2cccc(C(=O)O)c2)c(CC(=O)O)c1`: the inhibition in experiment [1] came out at 23%; in experiment [3], 74%.
For `CCCCCCCCCCOc1ccc(C(=O)CCCC(=O)O)cc1CC(=O)O` the same measures were 2% and 39%.
For the compound `CCCCCCCCCCOc1ccc(C(=O)c2cccc(C(=O)O)c2)cc1C(=O)O`, the values for the inhibition in experiment [1] and in experiment [3] were 21% and 76%, respectively.
Regarding `CCCCCCCCCCOc1ccc(C(=O)c2cccc(C(=O)O)c2)cc1CCCC(=O)O`, the inhibition was found to be 52% in experiment [1] and 89% in experiment [3].
As to `CCCCCCCCCCOc1ccc(C(=O)c2cccc(C#N)c2)cc1CC#N`, the inhibition in experiment [1] was determined as 0%; in experiment [3], 3%.
`CCCCCCCCCCOc1ccc(C(=O)c2cccc([N+](=O)[O-])c2)cc1CCC(=O)O`: the values for the inhibition in experiment [1] and in experiment [3] were 0% and 13%, respectively.
Consider `CCCCCCCCCCOc1ccc(C(=O)c2cccc(-c3nnn[nH]3)c2)cc1Cc1nnn[nH]1`, for which the inhibition in experiment [1] came out at 20%; in experiment [3] it was 81%.
In the same order, the values of `CCCCCCCCCCOc1ccc(C(=O)c2cccc(-c3nn[nH]n3)c2)cc1CC(=O)O` are 28% and 93%.
On to `O=C(O)CCc1cc(/C(=N\O)c2cccc(C(=O)O)c2)ccc1OCCCCCCc1ccccc1`, for which the inhibition in experiment [1] was 84%; in experiment [2], 30%; in experiment [3] it was 96%.
In the case of `O=C(O)CCc1cc(NC(=O)c2cccc(C(=O)O)c2)ccc1OCCCCCCc1ccccc1`, the inhibition in experiment [1] stood at 73%; in experiment [3], 98%.
In the case of `CCCCCCCCCCOc1ccc(C(O)c2cccc(C(=O)O)c2)cc1CC(=O)O` (stereo unspecified), the inhibition in experiment [1] was 28%; in experiment [3], 75%.
`CCCCCCCCCCOc1ccc(C(=O)c2cccc(Cc3nnn[nH]3)c2)cc1CCC(=O)O`: the figures for the inhibition in experiment [1] and in experiment [3] were 68% and 99%, respectively.
`O=C(O)CCc1cc(S(=O)(=O)c2cccc(C(=O)O)c2)ccc1OCCCCCCc1ccccc1`: the inhibition in experiment [1] was determined as 79%; in experiment [2] it was 24%; in experiment [3], 100%.
Take `CCCCCCCCCCOc1ccc(C(=O)c2cccc(C(=O)OCC)c2)cc1CC(=O)OCC`: the inhibition in experiment [1] and in experiment [3] was 0% in each case.
In the case of `CCCCCCCCCCOc1ccc(C(=O)c2cccc(-c3nn[nH]n3)c2)cc1CCC(=O)O`, the inhibition was determined as 71% in experiment [1] and 98% in experiment [3].
For the compound `O=C(O)CCc1cc(C(=O)c2cccc(C(=O)O)c2)ccc1OCCCCCCc1ccccc1`, the inhibition in experiment [1] came out at 85%; in experiment [3], 100%.
`CCCCCCCCCCOc1ccc(C(=O)c2cccc(C(=O)O)c2)c(O)c1`: the inhibition in experiment [1] is 13%; in experiment [3] it was 19%.
In the same order, the values of `CCCCCCCCCCOc1ccc(Oc2cccc(C(=O)O)c2)cc1CCC(=O)O` are 41% and 88%.
In the case of `CCCCCCCCCCOc1ccc(C(=O)c2cccc(C(=O)O)c2)cc1Cc1nnn[nH]1`, the inhibition in experiment [1] turned out to be 34%; in experiment [3], 83%.
With `CCCCCCCCCCOc1ccc(C(O)c2cccc(C(=O)O)c2)cc1CCC(=O)O` (stereo unspecified), the inhibition in experiment [1] was 55%; in experiment [3], 91%.
In the same order, the values of `CCCCCCCCCCOc1ccc(C(=O)c2cccc(C(=O)O)c2)cc1CCC(=O)O` are 60% and 95%.
As to `CCCCCCCCCCOc1ccc(C(=O)c2ccccc2C(=O)O)cc1CC(=O)O`, the inhibition was 7% in experiment [1] and 60% in experiment [3].
`O=C(O)CCc1cc(Sc2cccc(C(=O)O)c2)ccc1OCCCCCCc1ccccc1`: the inhibition was found to be 67% in experiment [1], 29% in experiment [2] and 102% in experiment [3].
With `CCCCCCCCCCOc1ccc(C(=O)c2cccc(C(=O)O)c2)cc1CC(=O)O`, the inhibition in experiment [1] is 27%; in experiment [3], 73%.
Consider `CCCCCCCCCCOc1ccc(C(=O)Cc2ccccc2C(=O)O)cc1CCC(=O)O`, for which the inhibition came out at 53% in experiment [1] and 95% in experiment [3].
In the case of `CCCCCCCCCCOc1ccc(C(=O)c2cccc(C(=O)O)c2)cc1CCc1nnn[nH]1`, the inhibition in experiment [1] came out at 55%; in experiment [3], 96%.
Regarding `CCCCCCCCCCOc1ccc(C(=O)c2ccccc2CC(=O)O)cc1CCC(=O)O`, the inhibition was 79% in experiment [1] and 100% in experiment [3].
On to `CCCCCCCCCCOc1ccc(/C(=N\O)c2cccc(C(=O)O)c2)cc1CCC(=O)O`, for which the inhibition in experiment [1] stood at 61%; in experiment [3] it was 92%.
As for `CCCCCCCCCCOc1ccc(C(=O)c2cccc(S(=O)(=O)NC)c2)cc1CCC(=O)O`, the inhibition was 9% in experiment [1] and 22% in experiment [3].
Take `CCCCCCCCCCOc1ccc(C(=O)c2ccccc2)cc1CC(=O)O`: the inhibition in experiment [1] is 1%; in experiment [3] it was 24%.
As for `CCCCCCCCCCOc1ccc(C(O)c2ccc(C(=O)O)cc2)cc1CC(=O)O` (stereo unspecified), the inhibition stood at 15% in experiment [1] and 59% in experiment [3].
Regarding `CCCCCCCCCCOc1ccc(Cc2cccc(C(=O)O)c2)cc1CCC(=O)O`, the inhibition was 41% in experiment [1] and 88% in experiment [3].
Consider `CCCCCCCCCCOc1ccc(C(=O)c2cccc(C(=O)OCC)c2)cc1Cc1nnn[nH]1`, for which the inhibition was 14% in experiment [1] and 0% in experiment [3].

Values taken from ChEMBL document CHEMBL1124983, “Benzophenone dicarboxylic acid antagonists of leukotriene B4. 1. Structure-activity relationships of the benzophenone nucleus” (J Med Chem, 1990).
